Data as given in US20260199249A1, “SOLID ELACESTRANT DIHYDROCHLORIDE COMPOSITIONS, METHODS OF MAKING THE SAME, AND METHODS OF TREATMENT USING THE SAME” (BERLIN-CHEMIE AG, priority 2023, published 2026).
Entries after “also recorded” stand apart in the source; their conditions may differ. Structures can show the parent of a compound that is named as a salt.

What was measured:
[1] = Dissolution in media of pH 1.2, 2.0 (QC), 4.5 and 6.8 with f2 analysis; type: physicochemical; conditions: pH 6.8 (phosphate buffer); dihydrochloride
Experimental: Dissolution profiles for Formulation 2 at the target hardness (13.3 kP and 16.4 kP for 100 mg and 400 mg tablets, respectively), were generated using testing conditions that represented the physiological range of pH 1.2 (0.1 N HCl) to pH 6.8 (phosphate buffer), as well as in the QC medium (0.01 N HCl) and at pH 4.5 (acetate buffer). The dissolution profiles under these various conditions are shown in FIGS. 11A-D (100 mg tablets) and FIGS. 12A-D (400 mg tablets).
FIGS. 13A-D compare the dissolution profiles of the elacestrant dihydrochloride 100 mg drug product used in the Pivotal BE study under 4 different dissolution conditions. […] At the highest tested pH (pH 6.8) the solubility of the drug is so low that this test condition is not a reliable method for testing the dissolution of elacestrant dihydrochloride 100 mg tablets. The curves were compared using f2 analysis. […] Although the data at pH 6.8 also indicate the two curves are similar, the percent released was so low that this comparison was not of any value.

[2] = Human effective jejunal permeability; conditions: Caco-2, scaled from in vitro Caco2 data, read-out: Human effective jejunal permeability, initial value
From the text: (§1) The physicochemical and biopharmaceutical properties for elacestrant dihydrochloride and its free base, elacestrant, were defined using a combination of in silico estimates from the ADMET Predictor® module that were based on the chemical structure, along with in vitro and in vivo data obtained from the literature and internal data. Table 5 summarizes the parameter values used for the elacestrant dihydrochloride […] pharmacokinetics (PBPK) model.

[3] = Human blood-to-plasma ratio; type: in vitro ADME; conditions: blood and plasma, RAD1901-111, read-out: Human blood-to-plasma ratio, initial value
From the text: as §1

[4] = Physicochemical properties (Log P, pKa, solubility vs. pH) for PBPK model
From the text: as §1
The solubility vs. pH profile is solved using conventional methods known to those in the art and using the measure pKa values for elacestrant (Table 5). The pHmax for elacestrant is 4.3. These values were used to model in vitro drug product dissolution. The in vivo solubility values of elacestrant dihydrochloride are calculated as a function of the volume administered and the food volume, where relevant.

[5] = Compressibility study (strain rate sensitivity); type: physicochemical
Experimental: To investigate the behavior of elacestrant dihydrochloride under mechanical stress, a compressibility study was performed. […] Thus, deformation was expected to be affected by speed. Crushing strength was rather low at slow speed and decreased as speed increased due to elastic recovery. […] The insights and recommendations from this work led to careful selection of excipients to keep tablet strength high for tablets with drug loads above 25%.

[6] = Exposure-response (ER) analysis for PFS; type: in vivo, human; conditions: non-parametric and parametric survival analysis
[7] = system: ER-positive (ER+) HER2-negative (HER2−) breast cancer cells; conditions: at concentrations inducing degradation of ERα protein; cited from earlier work
[8] = system: ER+HER2-breast cancer models; conditions: including models resistant to fulvestrant and CDK4/6 inhibitors and those harboring ESR1 mutations; cited from earlier work

Papp [2] [nm/s] | blood plasma ratio [3] | logP [4] | solubility ([4]; 0.01 N HCl) | pKa ([4]; (A)) | pKa ([4]; (B), first) | pKa ([4]; (B), second) | solubility ([4]; salt, pH = 4.3, read-out: Intrinsic solubility) [mg/mL] | strain rate sensitivity [5] [%] | pHmax [4] | solubility ([4]; free base, pH = 10, read-out: Intrinsic solubility) [mg/mL] | SMILES | solubility [1] | exposure-response for PFS (progression-free survival) [6] | 17β-estradiol mediated cell proliferation [7] | antitumor activity [8]
320 | 0.701 | 5.56 | feely soluble | 12 | 6.39 | 7.74 | 39.4 | 15.5 | – | – | CCNCCc1ccc(CN(CC)c2cc(OC)ccc2[C@@H]2CCc3cc(O)ccc3C2)cc1 [Elacestrant Dihydrochloride, (6R)-6-(2-(N-(4-(2-(ethylamino)ethyl)benzyl)-N-ethylamino)-4-methoxyphenyl)-5,6,7,8-tetrahydronaphthalen-2-ol dihydrochloride] | significantly lower; also recorded: so low | – | – | –
– | – | – | – | – | – | – | – | – | 4.3 | 0.000115 | CCNCCc1ccc(CN(CC)c2cc(OC)ccc2[C@@H]2CCc3cc(O)ccc3C2)cc1 [Elacestrant] | – | no differences in PFS across the observed range of elacestrant exposures | inhibited 17β-estradiol mediated cell proliferation | demonstrated in vitro and in vivo antitumor activity
